In US20200113852A1, “METHODS OF PATIENT SELECTION AND TREATING TRXR- OR PRDX-OVEREXPRESSED CANCERS” (TRIACT THERAPEUTICS, INC., priority 2017, published 2020):
Like-named read-outs stand apart in the source and are kept apart here.

What was measured:
HCT116 cells [1] = assay: Protein modification by Iniparib-biotin in cells (streptavidin-HRP blot, avidin pull-down LC-MS/MS); assay type: cell-based, human
Experimental: MDA-MB-453 and HCT116 cells were first pre-treated or not for 48 h with 1 mM BSO. Afterwards cells were incubated in serum-containing conditioned medium with increasing concentrations of Iniparib-biotin derivative for up to 4 hours.
Membranes were blotted with either Streptavidin-HRP (GE Healthcare), monoclonal antibody against GAPDH (Santa Cruz Biotechnology), polyclonal antibody raised against GSTP1 (Santa Cruz Biotechnology) or with MitoProfile® Total OXPHOS human antibody cocktail (Abcam). Detection of reactive bands was performed by enhanced chemiluminescence (West DURA substrate, Pierce, Thermo scientific).
BSO pretreated HCT116 cells were incubated for 4 h with 100 μM Iniparib-biotin. Then clarified octyl-glucoside lysates were combined with monomeric avidin-agarose and mixed overnight at 4° C. […] Final wash was performed with 0.15% octyl-glucoside, 50 mM NaCl, 10 mM Tris-HCl, pH 7.5 prior to Iniparib-biotin modified proteins' elution in 0.1 M glycine, pH 2.8, 20 min at 20° C. After pH adjustment to 8.5 by Ammonium Bicarbonate addition (50 mM final), eluted proteins were reduced (10 mM DTT, 30 min at 56° C.), alkylated (30 mM iodoacetamide, 30 min at 20° C.) and digested with trypsin (10 μg, overnight at 37° C.). Tryptic Iniparib-biotin modified peptides were further purified by monomeric avidin pull-down as described above except that the buffer used was 50 mM NaCl, 10 mM Tris-HCl, pH 7.5. After elution in 0.1 M glycine, pH 2.8, 20 min at 20° C., enriched Iniparib-biotin modified peptides were analyzed by LC-MS/MS. LC-MS/MS experiments were performed on a NanoAcquity UPLC (Waters) coupled to a hybrid LTQ Orbitrap Velos mass spectrometer (Thermo Fisher Scientific) equipped with a nanoelectrospray source. Tryptic digests were loaded onto an UPLC Trap column (Symmetry C18, 5 μm, 180 μm×20 mm, Waters) and washed with 0.2% formic acid at 20 μL/min for 5 min. […] The exact parent mass is the ^12C isotope ion mass of the most intense isotopic pattern detected on the high resolution Orbitrap MS parallel scan and included in the MS/MS selection window.

ΔSec human TrxR1 = target: T1, ΔSec human TrxR1 (Homo sapiens, UniProt Q16881); assay: Electron paramagnetic resonance, DEPMPO spin trapping; assay type: biochemical; conditions: ΔSec-TrxR1, absence of auranofin
T1 construct: purchased Abnova

HCT116 cells [2] = assay: Iniparib metabolites release, XLC-MS/MS of incubation media; assay type: in vitro ADME, human; set-up: unit not given beside the values
Experimental: (§1) Online solid phase extraction (SPE) was performed using the fully automated Spark Holland Symbiosis™ (Emmen, The Netherlands) in eXtraction Liquid Chromatography (XLC) mode. The Symbiosis™ has previously been described in detail (18). HySphere™ C18 HD 7 μm SPE cartridges were used (Spark Holland). Each cartridge was initially conditioned with 2 ml methanol+0.5% formic acid (FA) and then equilibrated with 2 ml water+0.5% FA, both at flow-rates of 4 ml/min. Sample (25 μl) was aspirated and loaded onto the cartridge with 1 ml water+0.5% FA at a flow-rate of 1 ml/min. […] After elution, the right clamp was washed successively with 2 ml water+0.5% FA, 2 ml methanol+0.5% FA and 2 ml water+0.5% FA at 4 ml/min. […] The mobile phase composition was returned to starting conditions over 1 min and maintained during 6 min for column equilibration. The total run time was 27 min. Mass spectrometry was performed using the Thermo® TSQ Quantum Discovery Max in electrospray positive ionization mode (Thermo, US) with the following parameters: capillary voltage=4.0 kV, capillary temperature=300° C., sheath gas pressure=40, auxiliary gas pressure=5.
(§2) All values are expressed as means±SEM of three independent experiments. ND., non detectable.

MDA-MB-453 cells = assay: as above; assay type: in vitro ADME, human; set-up: unit not given beside the values
Experimental: as §1, §2

HCT116 cells [3] = assay: Cytotoxicity assay (WST-1 cell viability); assay type: cell-based, human; conditions: for cytotoxicity: HCT116 without GSH depletion; for IC50: Homo sapiens
Experimental: Cell viability following drug treatments was assessed using WST-1 cell proliferation assay (Roche) Briefly, cells were plated into 96-well plates with 8,000 (HCT116) or 20,000 (MDA-MB-453) cells per well and allowed to attach overnight. Cells were then preincubated for 5 h in the presence or absence of 1 mM BSO. […] After 3 h of incubation at 37° C., the amount of formazan dye was quantified by measuring the optical density at 450 nm with a scanning multiwell spectrophotometer (PerkinElmer).
Cell viability following drug treatments was assessed using WST-1 cell proliferation assay (Roche). Briefly, cells were plated into 96-well plates with 8,000 (HCT116) or 20,000 (MDA-MB-453) cells per well and allowed to attach overnight. Cells were then preincubated for 5 h in the presence or absence of 1 mM BSO. […] After 3 h of incubation at 37° C., the amount of formazan dye was quantified by measuring the optical density at 450 nm with a scanning multiwell spectrophotometer (PerkinElmer).

T1 sequence (Q16881 151-647, stated change not applied): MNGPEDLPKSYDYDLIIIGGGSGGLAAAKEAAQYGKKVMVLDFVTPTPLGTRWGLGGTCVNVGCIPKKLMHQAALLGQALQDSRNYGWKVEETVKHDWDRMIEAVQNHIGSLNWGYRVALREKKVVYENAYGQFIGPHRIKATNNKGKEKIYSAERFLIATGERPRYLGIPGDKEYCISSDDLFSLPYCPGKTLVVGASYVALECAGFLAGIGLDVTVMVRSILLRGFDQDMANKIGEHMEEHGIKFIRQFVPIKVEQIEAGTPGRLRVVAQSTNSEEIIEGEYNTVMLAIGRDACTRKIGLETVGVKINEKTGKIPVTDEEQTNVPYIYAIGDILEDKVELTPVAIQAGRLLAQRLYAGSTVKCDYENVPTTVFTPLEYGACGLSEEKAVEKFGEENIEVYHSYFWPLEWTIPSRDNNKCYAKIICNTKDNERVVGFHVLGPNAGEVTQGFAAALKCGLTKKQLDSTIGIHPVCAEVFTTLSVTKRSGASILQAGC

O=C(CCCC[C@@H]1SC[C@@H]2NC(=O)N[C@@H]21)NCCNC(=O)c1ccc(I)c([N+](=O)[O-])c1 [Iniparib-biotin, 4-iodo-3-nitro-N-(2-(5-((3 aS,4S,6aR)-2-oxohexahydro-1H-thieno[3,4-d]imidazol-4-yl)pentanamido)ethyl)benzamide]
cellular proteins bearing Iniparib adducts (HCT116 cells [1]; BSO pretreated HCT116, 100 μM 4 h, MS/MS qualitative analysis): more than 200 cellular proteins | protein labeling with Iniparib-biotin (HCT116 cells [1]; HCT116 cells depleted of GSH, up to 100 μM, up to 4 h): strong protein labeling | protein modifications by Iniparib-biotin (HCT116 cells [1]; HCT116 cells not depleted of GSH): barely detectable

NC(=O)c1ccc(I)c([N+](=O)[O-])c1 [Iniparib, 4-iodo-3-nitrobenzamide]
DEPMPO/HOO• adduct signal (ΔSec human TrxR1): increase | DEPMPO/HO• adduct signal (ΔSec human TrxR1): modest increase | Iniparib and metabolites in incubation media (HCT116 cells [2]; HCT116 w BSO, 1 h after 100 μM Iniparib): 87.6 ± 3.5 | Iniparib and metabolites in incubation media (HCT116 cells [2]; HCT116 w BSO, 5 h after 100 μM Iniparib): 84.5 ± 6.7 | Iniparib and metabolites in incubation media (HCT116 cells [2]; HCT116 w BSO, 24 h after 100 μM Iniparib): 72.9 ± 7.4 | Iniparib and metabolites in incubation media (HCT116 cells [2]; HCT116 w/o BSO, 1 h after 100 μM Iniparib): 59.2 ± 0.6 | Iniparib and metabolites in incubation media (HCT116 cells [2]; HCT116 w/o BSO, 5 h after 100 μM Iniparib): 8.9 ± 0.4 | Iniparib and metabolites in incubation media (MDA-MB-453 cells; MDA-MB-453 w BSO, 1 h after 100 μM Iniparib): 91.4 ± 5.1 | Iniparib and metabolites in incubation media (MDA-MB-453 cells; MDA-MB-453 w BSO, 5 h after 100 μM Iniparib): 88.9 ± 10.2 | Iniparib and metabolites in incubation media (MDA-MB-453 cells; MDA-MB-453 w BSO, 24 h after 100 μM Iniparib): 74.2 ± 10.8 | Iniparib and metabolites in incubation media (MDA-MB-453 cells; MDA-MB-453 w/o BSO, 1 h after 100 μM Iniparib): 87.1 ± 1.3 | Iniparib and metabolites in incubation media (MDA-MB-453 cells; MDA-MB-453 w/o BSO, 5 h after 100 μM Iniparib): 64.0 ± 8.8 | Iniparib and metabolites in incubation media (MDA-MB-453 cells; MDA-MB-453 w/o BSO, 24 h after 100 μM Iniparib): 12.2 ± 4.3 | cytotoxicity (HCT116 cells [3]; after 24 h, concentrations up to 100 μM): marginal cytotoxicity | cytotoxicity (HCT116 cells [3]; up to 100 μM of Iniparib): no cytotoxicity was detected | IC50 (HCT116 cells [3]; HCT-116, 24 h, read-out: IC50 (cytotoxicity), HCT116 cells not depleted of GSH, transitory or 24 h exposure): > 100 µM | IC50 (HCT116 cells [3]; HCT-116, read-out: IC50 (cytotoxicity), HCT116, GSH depletion (Example 2)): 8.2 µM | IC50 (HCT116 cells [3]; HCT-116, read-out: IC50 (cytotoxicity), HCT116 after GSH depletion with BSO (Example 1)): 8.4 ± 0.5 µM
